Target: HIV-1 RT wild-type enzyme (Human immunodeficiency virus type 1 group M subtype B (isolate HXB2) (HIV-1), UniProt P04585)
Assay: Determination of HIV-1 reverse transcriptase inhibitory activity (RT polymerase assay)
Type: biochemical
Conditions: HIV-1 RT wild-type enzyme 83 pM, RNA-dependent DNA polymerase reaction
Description: The heterodimeric nucleic acid substrate used in the HIV-1 RT polymerase reactions was generated by annealing the DNA primer, biotinylated pD500 (Sigma Aldrich, USA, 5′-biotin-ttg aaa tga ctg cgg tac ggc-3′), SEQ ID NO. 1 to the nucleotide RNA template t500 (derived from hepatitis C virus [HCV] sequence, IBA, Germany, 5′-[…]-3′), SEQ ID NO 2.). […] The mixture was then preincubated on an orbital shaker for 30 min at room temperature in microtiter plates (Costar 3365, Corning, USA). A polymerization reaction was initiated by the addition of RNA template/pD500 DNA primer hybrid (16.6 nM final of RNA/DNA hybrid) and dNTPs (2 μM dATP, dGTP, dCTP and 66.6 nM Ru-dUTP (Meso Scale Discovery, USA)). Plate was sealed and incubated for 5-10 min at room temperature on an orbital shaker. Plate was then incubated for 90 min at 37° C. and reactions quenched with 60 μl quenching buffer (50 mM EDTA, 0.7% BSA, 0.7% Tween-20, 0.017% sodium azide in PBS). […] After washing plate 3 times with 150 μL 1×PBS and blotting dry between cycles, 150 μL 1× Read Buffer T (4× Read Buffer T, Meso Scale Discovery) was added and incubated for 5 min at room temperature before counting on a Sector Imager S6000 (Meso Scale Discovery). Titration curves and IC50 values were calculated using a four parameter logistic fit according to standard procedures. […]

Q: Which IC50 does the source give for CC(C)c1ccc(-c2cc(Cn3cnc(C(F)(F)F)c(Oc4cc(Cl)cc(C#N)c4)c3=O)n[nH]c2=O)cc1 [Example 49, 3-chloro-5-((1-((5-(4-isopropylphenyl)-6-oxo-1,6-dihydropyridazin-3-yl)methyl)-6-oxo-4-(trifluoromethyl)-1,6-dihydropyrimidin-5-yl)oxy)benzonitrile] here?
A: 15 nM

Reference: patent US10189831B2, “Non-nucleoside reverse transcriptase inhibitors” (Merck Sharp & Dohme Corp., priority 2012, dated 2019)
